Reference: patent US20120329761A1, “USE OF TIGECYCLINE FOR TREATMENT OF CANCER” (UNIVERSITY HEALTH NETWORK, priority 2010, published 2012)

Legend:
[1] = system: OCI-AML2 human leukemia cells; format: in vivo, SCID mice
Method: FIG. 3. Tigecycline has anti-leukemia activity in vivo. (A, B) Human leukemia (OCI-AML2) were injected subcutaneously into the flank of SCID mice. Seven days after injection, once tumors were palpable, mice were treated with tigecycline (50 mg/kg or 100 mg/kg twice daily by i.p. injection) or vehicle control (n=10 per group). Fourteen days after injection of cells, mice were sacrificed, tumors excised and the volume and mass of the tumors were measured. The tumor mass and the mean volume+SD are shown. Differences in tumor volume and mass were analyzed by an unpaired t-test: * p<0.001. (C) Tumours from two control mice, and three tigecycline-treated mice were excised after 5 days of treatment and total proteins were extracted and analyzed by western blotting for Cox-1, Cox-2, Cox-4, and tubulin. (D) Primary cells from three AML patients were injected intra-femorally into the right femur of female sub-lethally irradiated NOD/SCID mice. Three weeks after injection mice were treated with tigecycline (100 mg/kg by i.p. injection daily) or vehicle control (n=10 per group) for three weeks. Following treatment, human leukemia cell engraftment in the injected right femur was measured by FACS analysis for human CD45^+CD19^−CD33^+ cells. Data represent mean±SD of engrafted human cells. Cells from one patient experiment were used to assess secondary engraftment in a second generation of NOD/SCID mice. Equal numbers of viable leukemia cells from bone marrow of control and tigecycline treated mice were injected into irradiated NOD/SCID mice, which were not treated with tigecycline. Six weeks later, human leukemia cell engraftment in the injected right femur was measured by FACS analysis for human CD45^+CD19^−CD33^+ cells. (* p<0.005, Student's t-test).
OCI-AML2 human leukemia cells (1×10^6) were injected subcutaneously into the flanks of SCID mice (Ontario Cancer Institute, Toronto, ON). Seven days after injection, once tumours were palpable, mice were treated with tigecycline twice daily (50 mg/kg or 100 mg/kg by i.p. injection) or vehicle control (n=10 per group) for 14 days. Tumor volume (tumor length×width^2×0.5236) was measured three times a week using calipers. Twenty-one days after injection of cells, mice were sacrificed, tumors excised and the volume and mass of the tumors were measured.
Given the effects of tigecycline as a potential anti-leukemia agent, tigecycline in mouse models of leukemia was evaluated. To evaluate the anti-tumor efficacy of tigecycline in vivo, human OCI-AML2 leukemia cells were injected into the flank of SCID mice. […] Tumor volume and mass were measured over time (FIGS. 3A, B). […]

TEX cells = assay: ROS generation, DCF-DA and DHE staining; format: cell-based, human; conditions: time-points up to 24 hours
Method: FIG. 4. […] (A) Cells from TEX, OCI-AML2 and two primary AML patients were treated with increasing concentrations (2.5 μM and 5 μM) of tigecycline for 36 and 48 hours of tigecycline. Total proteins were extracted and analyzed by western blotting for Cox-1, Cox-2, Cox-4, grp78, XIAP, actin and tubulin. (B) TEX and AML patient cells were treated with increasing concentrations (2.5 μM and 5 μM) of tigecycline. Cox-1, Cox-2, and Cox-4 mRNA expression relative 18S was determined by quantitative RT-PCR. Data is shown as mean±SD. (C) TEX cells were treated with increasing concentrations of tigecycline and chloramphenicol (CAP) for 72 hours. Complex I, II and IV enzyme activity relative to citrate synthase activity was determined as described in materials and methods. (D) Cells from TEX, primary AML patients, and normal donors were treated with increasing concentrations of tigecycline. Mitochondrial membrane potential (Δψ) was determined by staining cells with JC-1 dye, and flow cytometry analysis (Red/Green ratio). Reactive oxygen species generation (ROS) was determined by staining with h2-DCFDA and Dihydroethidium (DHE).
A byproduct of the mitochondrial enzyme activities of the electron transport chain is the generation of reactive oxygen species (ROS). […] Therefore, the role of tigecycline on ROS generation in leukemia cells by analyzing hydrogen peroxide ions (H2O2) using a dichlorofluorescein dye (DCF-DA), and superoxide anions using dihydroethidium (DHE) was examined.

[2] = 50 mg/kg or 100 mg/kg twice daily i.p. for 14 days, p<0.001

CN(C)c1cc(NC(=O)CNC(C)(C)C)c(O)c2c1C[C@H]1C[C@H]3[C@H](N(C)C)C(O)=C(C(N)=O)C(=O)[C@@]3(O)C(O)=C1C2=O [tigecycline]
expression of cytochrome C oxidase subunits in tumours ([1]; 50 mg/kg bid for 5 days, western blotting): preferential decreased expression of mitochondrially translated subunits Cox-1 and Cox-2
decrease in tumor mass vs vehicle control [1, 2]: up to 70%
decrease in tumor volume vs vehicle control [1, 2]: up to 70%
toxicity in xenograft mice ([1]; mouse, in vivo): No evidence of toxicity
ROS generation (TEX cells): no observed increase in ROS generation
